Test results published in patent US6900219B2, “ABCA-1 elevating compounds” (CV Therapeutics, Inc., priority 2002, dated 2005).

Test system: ABCA-1 gene
Assay: compounds tested and found to elevate cellular expression of the ABCA-1 gene (Examples 1-6; test not named)
Format: cell-based
Description: Activity testing is conducted as described in those patents and patent applications referenced above, and in the Examples below, and by methods apparent to one skilled in the art.

Molecule	cellular expression of the ABCA-1 gene
O=C(Nc1cccc(Cl)c1)Nc1ccccc1C(=O)O [2-{[N-(3-chlorophenyl)carbamoyl]amino}benzoic acid]	elevate cellular expression of the ABCA-1 gene
CCc1ccc(C(=O)N(C/C=C/c2ccccc2)c2ccc(Br)cc2)cc1 [N-((2E)-3-phenylprop-2-enyl)-N-(4-bromophenyl)(4-ethylphenyl)carboxamide]	elevate cellular expression of the ABCA-1 gene
Cc1ccc(C(=O)NC2=NC(=O)CS2)cc1 [(4-methylphenyl)-N-(4-oxo(1,3-thiazolin-2-yl))carboxamide]	elevate cellular expression of the ABCA-1 gene
N#Cc1cccc(C(=O)Nc2nc3ccc(Cl)cc3s2)c1 [N-(6-chlorobenzothiazol-2-yl)(3-cyanophenyl)carboxamide]	elevate cellular expression of the ABCA-1 gene
CCOC(=O)C1=C(NCCc2ccccc2)CCN(C(=O)c2ccc(C)cc2)C1 [ethyl 1-[(4-methylphenyl)carbonyl]-4-[(2-phenylethyl)amino]-1,2,5,6-tetrahydropyridine-3-carboxylate]	elevate cellular expression of the ABCA-1 gene
O=C(Nc1nc(-c2ccc3ccccc3c2)cs1)c1cccc(C(F)(F)F)c1 [N-(4-(2-naphthyl)(1,3-thiazol-2-yl))[3-(trifluoromethyl)phenyl]carboxamide]	elevate cellular expression of the ABCA-1 gene
COc1ccc(C(=O)NCCc2ccccn2)cc1 [(4-methoxyphenyl)-N-(2-(2-pyridyl)ethyl)carboxamide]	elevate cellular expression of the ABCA-1 gene
O=C(Nc1nc(-c2ccc(Cl)cc2)cs1)c1ccc(C(F)(F)F)cc1F [N-[4-(4-chlorophenyl)(1,3-thiazol-2-yl)][2-fluoro-4-(trifluoromethyl)phenyl]-carboxamide]	elevate cellular expression of the ABCA-1 gene
Cc1ccc(NC(=O)Nc2ccc(Cl)c(Cl)c2)cc1 [N-(3,4-dichlorophenyl)[(4-methylphenyl)amino]carboxamide]	elevate cellular expression of the ABCA-1 gene
CN(C)c1ccc(C(=O)NC2=NCCS2)cc1 [[4-(dimethylamino)phenyl]-N-(1,3-thiazolin-2-yl)carboxamide]	elevate cellular expression of the ABCA-1 gene
CCc1c(C(=O)NCCc2ccccc2)cnn1-c1nc(-c2ccc(C)cc2)cs1 [{5-ethyl-1-[4-(4-methylphenyl)(1,3-thiazol-2-yl)]pyrazol-4-yl}-N-(2-phenylethyl)carboxamide]	elevate cellular expression of the ABCA-1 gene
O=C(Nc1nc(-c2ccccc2)ns1)C1CC1 [cyclopropyl-N-(3-phenyl(1,2,4-thiadiazol-5-yl))carboxamide]	elevate cellular expression of the ABCA-1 gene
CCc1cc(OC(=O)c2ccco2)n(-c2cccc(Cl)c2)n1 [1-(3-chlorophenyl)-3-ethylpyrazol-5-yl furan-2-carboxylate]	elevate cellular expression of the ABCA-1 gene
Cc1cc(C(=O)Nc2ncc(-c3ccccc3)s2)c(C)o1 [(2,5-dimethyl(3-furyl))—N-(5-phenyl(1,3-thiazol-2-yl))carboxamide]	elevate cellular expression of the ABCA-1 gene
O=C(Nc1nc2c(Cl)cccc2s1)c1ccc2c(c1)OC(F)(F)O2 [(2,2-difluorobenzo[3,4-d]1,3-dioxolen-5-yl)-N-(4-chlorobenzothiazol-2-yl)carboxamide]	elevate cellular expression of the ABCA-1 gene
O=C(NCCc1ccccc1F)c1ccc2oc(N3CCCN(C(=O)Cc4ccc(C(F)(F)F)cc4)CC3)nc2c1 [N-[2-(2-fluorophenyl)ethyl][2-(4-{2-[4-(trifluoromethyl)phenyl]acetyl}(1,4-diazaperhydroepinyl))benzoxazol-5-yl]carboxamide]	elevate cellular expression of the ABCA-1 gene
N-(4-naphthyl(1,3-thiazol-2-yl))[4-(trifluoromethoxy)phenyl]carboxamide	elevate cellular expression of the ABCA-1 gene
N-(2-phenylcyclopropyl)piperidylcarboxamide	elevate cellular expression of the ABCA-1 gene
COc1cccc(C(=O)NC2=NC(C(=O)O)CS2)c1 (centres unmarked) [2-[(3-methoxyphenyl)carbonylamino]-1,3-thiazoline-4-carboxylic acid]	elevate cellular expression of the ABCA-1 gene
O=C(Nc1ccc(F)cc1)c1cc2ccccc2oc1=O [N-(4-fluorophenyl)(2-oxochromen-3-yl)carboxamide]	elevate cellular expression of the ABCA-1 gene
O=[N+]([O-])c1ccc(COc2ccc(C3SCCS3)cc2)cc1 [4-(1,3-dithiolan-2-yl)-1-[(4-nitrophenyl)methoxy]benzene]	elevate cellular expression of the ABCA-1 gene

Molecule	cellular expression of the ABCA-1 gene
N#Cc1c(NC(=O)c2ccc(Br)o2)sc2ccccc12 [(5-bromo(2-furyl)-N-(3-cyanobenzo[b]thiophen-2-yl)carboxamide]	elevate cellular expression of the ABCA-1 gene
CC(C)(C)c1cc(NC(=O)C(C)(C)S(=O)(=O)c2ccc(C(F)(F)F)cc2)no1 [N-[5-(tert-butyl)isoxazol-3-yl]-2-methyl-2-{[4-(trifluoromethyl)phenyl]sulfonyl}-propanamide]	elevate cellular expression of the ABCA-1 gene
CCCCNC(=O)N(CCC(C)C)C(C)c1nc2cc(Cl)ccc2c(=O)n1-c1ccc(C)cc1 (centres unmarked) [(butylamino)-N-{[7-chloro-3-(4-methylphenyl)-4-oxo(3-hydroquinazolin-2-yl)]ethyl}-N-(3-methylbutyl)carboxamide]	elevate cellular expression of the ABCA-1 gene
O=C(c1ccc(Br)cc1)N(CCc1ccccc1)Cc1c2ccccc2cc2ccccc12 [N-(9-anthrylmethyl)(4-bromophenyl)-N-(2-phenylethyl)carboxamide]	elevate cellular expression of the ABCA-1 gene
CC(C)CN(C(=O)Nc1cccc(Cl)c1)C(C)c1nc2ccccc2c(=O)n1-c1ccc2ccccc2c1 (centres unmarked) [[(3-chlorophenyl)amino]-N-(2-methylpropyl)-N-[(3-(2-naphthyl)-4-oxo(3-hydroquinazolin-2-yl))ethyl]carboxamide]	elevate cellular expression of the ABCA-1 gene
CCc1c(C(=O)N2CCN(C(=O)c3ccc(-c4ccccc4)cc3)C(C)C2)cnn1-c1nc(-c2ccc(OC)cc2)cs1 (centres unmarked) [[4-(biphenyl-4-carbonyl)-3-methyl-piperazin-1-yl]-{5-ethyl-1-[4-(4-methoxy-phenyl)-thiazol-2-yl]-1H-pyrazol-4-yl}-methanone]	elevate cellular expression of the ABCA-1 gene
Cc1ccc(-c2csc(-n3ncc(C(=O)NCCc4ccccc4)c3C)n2)cc1 [5-methyl-1-(4-p-tolyl-thiazol-2-yl)-1H-pyrazole-4-carboxylic acid phenethyl-amide]	elevate cellular expression of the ABCA-1 gene
O=C(Nc1nc(-c2ccc3ccccc3c2)cs1)c1ccc(F)cc1F [(2,4-difluorophenyl)-N-(4-(2-naphthyl)(1,3-thiazol-2-yl))carboxamide]	elevate cellular expression of the ABCA-1 gene
CSC(N)=N/N=C/c1ccc(Cl)cc1 [(1 Z,3E)-2,3-diaza-4-(4-chlorophenyl)-1-methylthiobuta-1,3-dienylamine]	elevate cellular expression of the ABCA-1 gene
O=C(Nc1nc2ccccc2s1)c1cccs1 [N-benzothiazol-2-yl-2-thienylcarboxamide]	elevate cellular expression of the ABCA-1 gene
O=C(Nc1ccc(Cl)cc1)NC1CCCCC1 [[(4-chlorophenyl)amino]-N-cyclohexylcarboxamide]	elevate cellular expression of the ABCA-1 gene
Cc1onc(-c2ccccc2Cl)c1C(=O)Nc1ncc(-c2ccccc2)s1 [[3-(2-chlorophenyl)-5-methylisoxazol-4-yl]-N-(5-phenyl(1,3-thiazol-2-yl))carboxamide]	elevate cellular expression of the ABCA-1 gene
CCc1c(C(=O)NCc2ccco2)cnn1-c1nc(-c2ccc(C)cc2)cs1 [5-ethyl-1-(4-p-tolyl-thiazol-2-yl)-1H-pyrazole-4-carboxylic acid (furan-2-ylmethyl)-amide]	elevate cellular expression of the ABCA-1 gene
Cc1ccc(C(=O)NC2=NC(C(=O)O)CS2)cc1 (centres unmarked) [2-[(4-methylphenyl)carbonylamino]-1,3-thiazoline-4-carboxylic acid]	elevate cellular expression of the ABCA-1 gene
N#Cc1ccc(C(=O)Nc2ncc(-c3ccccc3)s2)cc1 [(4-cyanophenyl)-N-(5-phenyl(1,3-thiazol-2-yl))carboxamide]	elevate cellular expression of the ABCA-1 gene
Cc1c(C(=O)NC(=O)Nc2ccccc2Cl)cnn1-c1ccccc1 [N-{[(2-chlorophenyl)amino]carbonyl}(5-methyl-1-phenylpyrazol-4-yl)carboxamide]	elevate cellular expression of the ABCA-1 gene
CCCCCCCC(=O)N1CCC2(CC1)OCCO2 [1-(8-aza-1,4-dioxaspiro[4.5]dec-8-yl)octan-1-one]	elevate cellular expression of the ABCA-1 gene
CCCOc1nc(-c2ccc(Cl)cc2Cl)n(S(=O)(=O)Cc2ccccc2)n1 [5-(2,4-dichlorophenyl)-1-[benzylsulfonyl]-3-propoxy-1,2,4-triazole]	elevate cellular expression of the ABCA-1 gene
O=C(NC1=NCCS1)c1ccc(Cl)cc1Cl [(2,4-dichlorophenyl)-N-(1,3-thiazolin-2-yl)carboxamide]	elevate cellular expression of the ABCA-1 gene
CSc1ccc(NC(=O)N(CC(C)C)C(C)c2nc3ccccc3c(=O)n2-c2ccc3ccccc3c2)cc1 (centres unmarked) [N-(2-methylpropyl)[(4-methylthiophenyl)amino]-N-[(3-(2-naphthyl)-4-oxo(3-hydroquinazolin-2-yl))ethyl]carboxamide]	elevate cellular expression of the ABCA-1 gene
